# From patent US8710032B2, “Inhibitors of the mevalonate pathway of Streptococcus pneumoniae” (Northwestern University, priority 2006, dated 2014)
# “Also recorded” adds a separate entry of the source. Like-named read-outs stand apart in the source and are kept apart here.
# Assays:
# human mevalonate kinase [1] = biological target: T1, human mevalonate kinase (Homo sapiens, UniProt Q03426); experiment: DPM inhibition of human mevalonate kinase (initial rate); format: biochemical; conditions: at DPM concentrations that essentially completely inhibit the streptococcal system; [substrates]~Km
# T1 construct: made in house
# T1 sequence (Q03426 whole entry): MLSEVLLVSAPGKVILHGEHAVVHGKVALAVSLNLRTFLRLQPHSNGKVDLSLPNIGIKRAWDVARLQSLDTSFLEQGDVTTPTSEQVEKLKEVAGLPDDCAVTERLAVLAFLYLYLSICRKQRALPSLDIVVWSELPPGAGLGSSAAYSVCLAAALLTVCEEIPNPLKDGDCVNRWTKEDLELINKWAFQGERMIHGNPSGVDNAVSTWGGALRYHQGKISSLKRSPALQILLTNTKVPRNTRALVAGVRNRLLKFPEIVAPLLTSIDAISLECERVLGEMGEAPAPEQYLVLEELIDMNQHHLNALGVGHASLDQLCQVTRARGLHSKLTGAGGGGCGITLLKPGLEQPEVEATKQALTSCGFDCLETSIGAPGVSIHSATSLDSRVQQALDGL
# Method: (§1) The findings that mevalonate-pathway S. pneumoniae mutants cannot survive in mouse lung or serum validated this pathway as an antibiotic target in animal models. Acting on the hypothesis that the primary sequence differences of the mammalian and streptococcal MKs might produce different DPM-inhibition characteristics, the human enzyme was cloned, expressed, purified and tested for DPM inhibition. The effect of DPM on the initial rate of the human and streptococcal enzymes was assessed using samples with matched catalytic poise ([substrates]˜Km, equivalent Vm).
# mevalonate kinase (MK) [2] = biological target: T2, mevalonate kinase (MK) (Streptococcus pneumoniae, UniProt A0A0H2UNK6); experiment: Equilibrium binding of DPM to MK
# mevalonate kinase (MK) [3] = biological target: T2, mevalonate kinase (MK); experiment: Initial-rate inhibition of S. pneumoniae mevalonate kinase; format: biochemical
# Method: Regulation of the isoprenoid biosynthetic pathway in S. pneumoniae was discovered during an attempt to enzymatically synthesize DPM from ATP and mevalonate using MK and PMK. Individually, either enzyme is capable of quantitative conversion of substrate to product. However, when the enzymes are added simultaneously, the forward reaction decelerates rapidly and little product is formed. […] Thus, this nearly pure noncompetitive inhibitor binds at a site that is physically distinct from the substrate binding sites—an allosteric site. […] The stoichiometry was confirmed by NMR titration. […] Down-regulation of this pathway is quite specific for DPM.
# as §1
# (§2) Several compounds were designed to inhibit DPM-DC and control cholesterol biosynthesis. In one such compound, each of the C6-methyl protons of mevalonate are replaced with fluorine (6,6,6-trifluoromevalonate, F3-mev). Given DPM inhibition of MK, and excellent inhibition of rat liver DPM-DC by F3-DPM (Ki=0.5 μM) it was hoped that F3-DPM might inhibit both MK and DPM-DC from S. pneumoniae, and, if so, be used as a bacteriostatic or bacteriocidal agent. […] Encouraged, F3-DPM was tested as an antibiotic against S. pneumoniae. To avoid the possible obstacles of phosphatase degradation of DPM and transporting a highly charged anion across the cell wall, a prodrug strategy that relies on conversion of F3-mev to F3-DPM in the cytosol was used. F3-mev conversion to F3-DPM and consequent inhibition of DPM-DC occurs in rat liver extracts. The linear and lactone forms of statins, which target an early step in the isoprenoid pathway, show widely different potencies; consequently, both forms of F3-mev were tested as inhibitors. Serial dilutions of F3-mev were added to Meuller-Hinton Broth, a horse-blood based medium, containing ˜7.5×10^7 cells of either an infectious (ATCC 49619) or non-infectious (R6) strain of S. pneumoniae. The cultures containing F3-mev were incubated for 24 hours at 35° C. and plated to assess viability. The linear form of F3-mev had little effect; confluent growth was observed on all plates; in contrast, the lactone is clearly a bacteriocide—less than 0.0001% of either strain survived at 100-200 μg/ml of the lactone. […]
# DPM-DC [4] = biological target: T3, DPM-DC (Streptococcus pneumoniae, UniProt A0A0H2UNP0); experiment: DPM binding to DPM-DC by intrinsic fluorescence
# T3 sequence (A0A0H2UNP0 1-317): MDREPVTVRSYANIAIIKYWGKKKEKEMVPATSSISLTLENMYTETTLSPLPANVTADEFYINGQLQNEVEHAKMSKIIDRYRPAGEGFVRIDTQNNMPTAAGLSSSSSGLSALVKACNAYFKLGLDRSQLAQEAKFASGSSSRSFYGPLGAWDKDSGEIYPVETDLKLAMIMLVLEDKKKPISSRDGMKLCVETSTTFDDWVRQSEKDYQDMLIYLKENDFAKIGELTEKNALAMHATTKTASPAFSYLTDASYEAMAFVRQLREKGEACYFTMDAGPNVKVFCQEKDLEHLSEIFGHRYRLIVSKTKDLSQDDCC
# Method: FIG. 5. DPM Binding to DPM-DC. Conditions: DPM-DC (0.10 μM); MgCl2 (1.0 mM); β-Me (2.0 mM); KCl (50 mM); Glycerol (0.5% v/v); Hepes (50 mM, pH 8.0); T=25 (±2)° C.
# This spectroscopic handle can be used to determine the affinities of the inhibitors described in this proposal and to explore the mechanism of DPM-DC. […] As a tool to study mechanism, the DPM-induced fluorescence changes can monitor, by stopped-flow, the progress of the binding reactions. The concentration dependencies of such measurements yield microscopic rate constants, which, in turn, provide ground and transition-state energetics for a particular step in the reaction coordinate. In favorable cases, fluorescence changes occur subsequent to binding as consequence of other structural changes that occur during the catalytic cycle—such is the case with DPM-DC. These changes can be assigned to bond-cleavage steps using by monitoring chemistry in the presteady-state by quenched-flow.
# mevalonate kinase (MK) [5] = biological target: T2, mevalonate kinase (MK); conditions: read-out: Ki (binding to the allosteric site of mevalonate kinase); S. pneumoniae MK; background, Andreassi et al. 2004; cited from earlier work
# human mevalonate kinase [6] = biological target: T1, human mevalonate kinase; conditions: background; cited from earlier work
# [7] = biological target: T4, mammalian DPM decarboxylase (Homo sapiens, UniProt P53602); conditions: cited from earlier work; for Km: substrate of mammalian DPM decarboxylase
# T4 sequence (P53602 1-400): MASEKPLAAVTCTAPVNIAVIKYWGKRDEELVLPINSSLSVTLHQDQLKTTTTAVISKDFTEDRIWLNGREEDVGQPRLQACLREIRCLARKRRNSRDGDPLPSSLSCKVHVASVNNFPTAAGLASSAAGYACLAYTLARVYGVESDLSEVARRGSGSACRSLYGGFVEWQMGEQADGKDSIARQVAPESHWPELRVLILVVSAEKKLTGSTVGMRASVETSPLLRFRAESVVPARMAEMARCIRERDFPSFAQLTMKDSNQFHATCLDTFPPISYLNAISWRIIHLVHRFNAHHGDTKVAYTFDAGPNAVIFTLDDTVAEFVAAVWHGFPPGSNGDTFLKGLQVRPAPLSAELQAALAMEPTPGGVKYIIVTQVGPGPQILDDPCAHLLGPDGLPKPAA
# DPM-DC [8] = biological target: DPM-DC (Streptococcus pneumoniae, UniProt Q9FD53); experiment: Inhibition of S. pneumoniae DPM-DC; format: biochemical; conditions: DPM-DC from S. pneumoniae
# Chain of DPM-DC (Streptococcus pneumoniae, UniProt Q9FD53) (Q9FD53 entry or part of it): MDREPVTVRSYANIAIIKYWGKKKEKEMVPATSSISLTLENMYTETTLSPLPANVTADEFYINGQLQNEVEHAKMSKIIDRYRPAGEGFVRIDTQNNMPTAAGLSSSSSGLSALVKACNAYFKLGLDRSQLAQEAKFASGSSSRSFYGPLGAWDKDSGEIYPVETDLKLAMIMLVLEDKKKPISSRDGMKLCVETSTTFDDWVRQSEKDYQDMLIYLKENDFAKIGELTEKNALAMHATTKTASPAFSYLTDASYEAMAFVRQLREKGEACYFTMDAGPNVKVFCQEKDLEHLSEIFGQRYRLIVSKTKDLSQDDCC
# rat liver DPM-DC = biological target: T5, rat liver DPM-DC (Rattus norvegicus, UniProt Q62967); conditions: cited from earlier work
# T5 construct: host or cells: rat liver
# T5 sequence (Q62967 1-401): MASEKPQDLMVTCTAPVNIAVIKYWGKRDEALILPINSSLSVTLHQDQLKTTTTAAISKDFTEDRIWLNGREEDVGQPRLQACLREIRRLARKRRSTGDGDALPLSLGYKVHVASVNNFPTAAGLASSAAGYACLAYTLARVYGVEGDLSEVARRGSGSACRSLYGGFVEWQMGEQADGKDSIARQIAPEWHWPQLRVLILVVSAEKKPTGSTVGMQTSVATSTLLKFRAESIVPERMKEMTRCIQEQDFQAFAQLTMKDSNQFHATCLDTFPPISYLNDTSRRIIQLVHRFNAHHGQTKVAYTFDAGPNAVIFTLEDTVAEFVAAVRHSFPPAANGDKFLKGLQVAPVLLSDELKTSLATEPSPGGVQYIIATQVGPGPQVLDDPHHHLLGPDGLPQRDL
# [9] = system: S. pneumoniae (ATCC 49619, R6); experiment: Antibiotic test: broth culture, plated to assess viability; format: cell-based, Streptococcus pneumoniae; conditions: serial dilutions; 24 hours at 35° C.; ATCC 49619 or R6
# Method: as §2, with “viability.” for “viability. The linear form of F3-mev had little effect; confluent growth was observed on all plates; in contrast, the lactone is clearly a bacteriocide—less than 0.0001% of either strain survived at 100-200 μg/ml of the lactone.”
# mevalonate kinase = biological target: T6, mevalonate kinase (Streptococcus pneumoniae, UniProt A0A0H2UNK6); experiment: Initial substrate results of analogues with mevalonate kinase (FIG. 8); format: biochemical; conditions: [ATP]=0.85 mM
# T6 sequence (A0A0H2UNK6 1-292): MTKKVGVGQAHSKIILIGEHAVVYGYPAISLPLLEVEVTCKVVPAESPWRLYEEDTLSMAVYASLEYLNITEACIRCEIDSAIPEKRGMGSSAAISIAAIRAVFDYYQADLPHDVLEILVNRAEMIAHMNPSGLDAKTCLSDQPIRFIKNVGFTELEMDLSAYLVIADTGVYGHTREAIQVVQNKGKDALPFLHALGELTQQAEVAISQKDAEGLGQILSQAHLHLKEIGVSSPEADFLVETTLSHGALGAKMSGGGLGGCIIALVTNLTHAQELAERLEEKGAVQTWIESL
# Method: FIG. 8. Initial substrate results [analogue] ranged from 2.0-2.5 mM, except #6 (4.2 mM) and #8 (6.2 mM).
# A series of compounds related to compounds 4, 5, 23, and 25 can be synthesized as potential competitive or noncompetitive reversible inhibitors of MK and DPM-DC (See, e.g., FIGS. 6-7). The representative synthesis shown (Scheme 4a) is a modification of that shown in Scheme 4, and R is limited only by availability of the corresponding reagent and synthetic technique, as would be understood by those skilled in the art made aware of this invention (e.g., alkyl, vinyl, acetylenyl, aryl, heteroaryl, etc., via Grignard reaction with the corresponding magnesium bromide or chloride).
# PMK = conditions: producing 6-fluoroDPM; cited from earlier work
# DPM-DC [10] = biological target: T3, DPM-DC; conditions: cited from earlier work
# [11] = system: incorporation of mevalonate into nonsaponifiable lipids; conditions: rat liver extracts; relative to F3-mev; cited from earlier work
# MK = conditions: producing 6-fluoroDPM; cited from earlier work
structure (smiles),measurement,setting,value
"C[C@@](O)(CCOP(=O)(O)OP(=O)(O)O)CC(=O)O [DPM, Diphosphomevalonate]",effect of DPM on human MK,human mevalonate kinase [1],virtually unaffected; also recorded: insensitive
same,Kd,"mevalonate kinase (MK) [2]; Kd DPM, quoted for the NMR titration of MK",500 nM
same,Kd,"mevalonate kinase (MK) [2]; affinity of DPM for apo (E) form of the enzyme, apo (E)",630 nM
same,Kd,"mevalonate kinase (MK) [2]; affinity of DPM for ternary (E.AMPPNP.mev) form of the enzyme, ternary (E.AMPPNP.mev)",530 nM
same,binding stoichiometry,mevalonate kinase (MK) [2]; enzyme is a dimer,0.5 DPM/active site
same,Ki,mevalonate kinase (MK) [3],500 nM
same,turnover reduced to,mevalonate kinase (MK) [3]; DPM bound to MK,less than 0.5%
same,inhibition mechanism (initial-rate study),mevalonate kinase (MK) [3]; vs substrates,noncompetitively
same,Kd,DPM-DC [4],540 nM
same,change in the intrinsic fluorescence of DPM-DC,DPM-DC [4]; on binding of DPM,1.5 fold
same,Ki,mevalonate kinase (MK) [5],400 nM
same,effect of DPM on human mevalonate kinase isozyme,human mevalonate kinase [6],not affected
same,Km,[7],15 µM
O=C(O)CC(O)(CCOP(=O)(O)OP(=O)(O)O)C(F)(F)F (stereo not drawn) [F3-DPM],Ki,DPM-DC [8],50 nM
same,Ki,rat liver DPM-DC; rat liver,500 nM
same,Ki,"mevalonate kinase (MK) [3]; MK from S. pneumoniae, read-out: Ki (MK)",570 nM
CCC(O)(CCOP(=O)(O)OP(=O)(O)O)CC(=O)O (stereo not drawn) [compound 14],Km,[7]; read-out: Km,33 µM
same,kcat relative to DPM,[7]; that of DPM,32%
"O=C(O)CC(O)(CCO)C(F)(F)F (stereo not drawn) [linear form of F3-mev, 6,6,6-trifluoromevalonate]",effect on viability (growth on plates),[9],little effect
CC(O)(CCO)CC(=O)O (stereo not drawn) [mevalonate],kcat,mevalonate kinase,227 s^1
"O=C(O)CC(O)(CF)CCO (stereo not drawn) [mono-fluoro derivative, 6-Fluoromevalonic acid]",substrate for PMK (in words),PMK,substrate
same,better inhibitor of DPM-DC (relative to F3 analogue),rat liver DPM-DC; rat liver extracts,50 fold
same,decrease in turnover,DPM-DC [10]; mono-fluoro substitution at C6,2500 fold
same,turnover,DPM-DC [10]; substrate of DPM-DC,0.19 min⁻¹
same,turnover relative to the native compound,DPM-DC [10]; vs DPM,0.04%
same,more effective than F3-mev in inhibiting incorporation of mevalonate into nonsaponifiable lipids,[11],50 times
same,substrate for MK (in words),MK,substrate
